# Like-named read-outs stand apart in the source and are kept apart here.
# Assays:
# Format in all cases: in vivo
# [1] = tested on: Cyperus serotinus; assay: Field transplant rice test, applied 9 DAT, CS; settings: for inhibition at 375 g/ha / inhibition at 750 g/ha / inhibition at 1500 g/ha / inhibition at 3000 g/ha: Cyperus serotinus, 216 h, read-out: Percent Inhibition, CS; for inhibition at 375 g/ha: 0.375 Kg/Ha; for inhibition at 750 g/ha: 0.75 Kg/Ha; for inhibition at 1500 g/ha: 1.5 Kg/Ha; for inhibition at 3000 g/ha: 3.0 Kg/Ha
# Excerpt: (§1) In the discussion of data below, occasional reference is made to herbicide application rates symbolized as "GR15 " and "GR85 "; these rates are given in kilograms per hectare (kg/ha) which are convertible into pounds per acre (lbs/A) by dividing the kg/ha rate by 1.12.
# (§2) A further guide to the effectiveness of a chemical as a selective herbicide is the "selectivity factor" ("SF") for a herbicide in given crops and weeds. The selectivity factor is a measure of the relative degree of crop safety and weed injury and is expressed in terms of the GR15 /GR85 ratio, i.e., the GR15 rate for the crop divided by the GR85 rate for the weed, both rates in kg/ha (lb/A.)
# (§3) The test data in Table III for all compounds was obtained under identical test conditions. The weeds used in the tests herein have the following abbreviations in the tables: Echinochloa crus-galli (EC), Monochloria vaginalis (MV), Cyperus Serotinus (CS), Eleocharis Kuroguwai (EK) and Sagittaria trifolia (ST).
# (§4) In further comparative tests, a preferred compound of this invention (Example 1) was tested in the field with prior art Compounds A-D. These tests were conducted under conditions reflecting herbicide application times generally favorable to all herbicides in the test. The timing of application of herbicides to transplant rice is very important, whether, as in some instances, prior to transplanting the rice; in other instances, at the time of transplanting or else after transplanting. Application times are conventionally referred to as "days before transplant" (DBT) or "days after transplant" ("DAT"). The field test data in Table IV was obtained from a test in which the herbicides were applied at the time of transplant, i.e., "0 DAT", with observations being made weekly up to six weeks after transplant ("WAT") beginning at two weeks after transplant; for illustrative and representative purposes, only the early, middle and late period observations, i.e., 2 WAT, 4 WAT and 6 WAT, are shown in Table IV. The data in Table IV is for rates of application common to all herbicides in the test, i.e., from 3.0 kg/ha (2.67 lb/A) down to 0.375 kg/ha (0.34 lb/A). All herbicides were applied at their actual or expected use rates, i.e., as granules containing 2.5% by weight herbicide for the compound of Example 1, Compounds B, C and D and 5.0% by weight for Compound A.
# (§5) In Table V are presented field data showing the relative performance of the compound of Example 1 and Compounds A-D applied 9 DAT, with observations being made weekly from 3 WAT to 7 WAT; again, for illustrative and representative purposes, only the early, middle and late period observations are reported in Table V, the herbicide rates and concentrations of active ingredients the same as is shown in Table IV.
# [2] = tested on: Echinochloa crus-galli; assay: Field transplant rice test, applied 9 DAT, EC; settings: for inhibition at 375 g/ha / inhibition at 750 g/ha / inhibition at 1500 g/ha / inhibition at 3000 g/ha: Echinochloa crus-galli, 216 h, read-out: Percent Inhibition, EC; for inhibition at 375 g/ha: 0.375 Kg/Ha; for inhibition at 750 g/ha: 0.75 Kg/Ha; for inhibition at 1500 g/ha: 1.5 Kg/Ha; for inhibition at 3000 g/ha: 3.0 Kg/Ha
# Excerpt: as §1, §2, §3, §4, §5
# [3] = tested on: Rice; assay: Field transplant rice test, applied 0 DAT, rice injury; settings: for inhibition at 375 g/ha / inhibition at 750 g/ha / inhibition at 1500 g/ha / inhibition at 3000 g/ha: Oryza sativa, 0 h, read-out: Percent Inhibition, Rice; for inhibition at 375 g/ha: 0.375 Kg/Ha; for inhibition at 750 g/ha: 0.75 Kg/Ha; for inhibition at 1500 g/ha: 1.5 Kg/Ha; for inhibition at 3000 g/ha: 3.0 Kg/Ha
# Experimental: as §4
# [4] = tested on: Cyperus serotinus; assay: Field transplant rice test, applied 0 DAT, CS; settings: 0 h, read-out: Percent Inhibition, CS; for inhibition at 375 g/ha: 0.375 Kg/Ha; for inhibition at 750 g/ha: 0.75 Kg/Ha; for inhibition at 1500 g/ha: 1.5 Kg/Ha; for inhibition at 3000 g/ha: 3.0 Kg/Ha
# Experimental: as §3, §4
# [5] = tested on: Monochoria vaginalis; assay: Field transplant rice test, applied 9 DAT, MV; settings: for inhibition at 375 g/ha / inhibition at 750 g/ha / inhibition at 1500 g/ha / inhibition at 3000 g/ha: Pontederia vaginalis, 216 h, read-out: Percent Inhibition, MV; for inhibition at 375 g/ha: 0.375 Kg/Ha; for inhibition at 750 g/ha: 0.75 Kg/Ha; for inhibition at 1500 g/ha: 1.5 Kg/Ha; for inhibition at 3000 g/ha: 3.0 Kg/Ha
# Excerpt: as §1, §2, §3, §4, §5
smiles,measurement,setting,value
"CCCCOCN(C(=O)CCl)c1c(C)cccc1C(C)(C)C [Compound C, 2'-methyl-6'-tert-butyl-N-(n-butoxymethyl)-2-chloroacetanilide]",inhibition at 375 g/ha,[1]; 3 WAT,58%
same,inhibition at 375 g/ha,[1]; 5 WAT,60%
same,inhibition at 375 g/ha,[1]; 7 WAT,43%
same,inhibition at 750 g/ha,[1]; 3 WAT,93%
same,inhibition at 750 g/ha,[1]; 5 WAT,93%
same,inhibition at 750 g/ha,[1]; 7 WAT,82%
same,inhibition at 1500 g/ha,[1]; 3 WAT,62%
same,inhibition at 1500 g/ha,[1]; 5 WAT,87%
same,inhibition at 1500 g/ha,[1]; 7 WAT,83%
same,inhibition at 3000 g/ha,[1]; 3 WAT,95%
same,inhibition at 3000 g/ha,[1]; 5 WAT,100%
same,inhibition at 3000 g/ha,[1]; 7 WAT,100%
same,"selectivity factor (GR15/GR85), CS in transplant rice",[1]; between 3 WAT and 7 WAT,4
same,inhibition at 375 g/ha,[2]; 3 WAT,82%
same,inhibition at 375 g/ha,[2]; 5 WAT,78%
same,inhibition at 375 g/ha,[2]; 7 WAT,82%
same,inhibition at 750 g/ha,[2]; 3 WAT,92%
same,inhibition at 750 g/ha,[2]; 5 WAT,95%
same,inhibition at 750 g/ha,[2]; 7 WAT,97%
same,inhibition at 1500 g/ha,[2]; 3 WAT,98%
same,inhibition at 1500 g/ha,[2]; 5 WAT,100%
same,inhibition at 1500 g/ha,[2]; 7 WAT,100%
same,inhibition at 3000 g/ha,[2]; 3 WAT,98%
same,inhibition at 3000 g/ha,[2]; 5 WAT,100%
same,inhibition at 3000 g/ha,[2]; 7 WAT,100%
same,"selectivity factor (GR15/GR85), EC in transplant rice",[2]; between 3 WAT and 7 WAT,4
same,injury rate in rice,"[3]; 1.5 kg/ha (1.34 lb/A), after 4 WAT",greater than 15%
same,inhibition at 375 g/ha,[3]; 2 WAT,3%
same,inhibition at 375 g/ha,[3]; 4 WAT,0%
same,inhibition at 375 g/ha,[3]; 6 WAT,0%
same,inhibition at 750 g/ha,[3]; 2 WAT,2%
same,inhibition at 750 g/ha,[3]; 4 WAT,2%
same,inhibition at 750 g/ha,[3]; 6 WAT,2%
same,inhibition at 1500 g/ha,[3]; 2 WAT,12%
same,inhibition at 1500 g/ha,[3]; 4 WAT,18%
same,inhibition at 1500 g/ha,[3]; 6 WAT,18%
same,inhibition at 3000 g/ha,[3]; 2 WAT,22%
same,inhibition at 3000 g/ha,[3]; 4 WAT,27%
same,inhibition at 3000 g/ha,[3]; 6 WAT,30%
same,inhibition at 375 g/ha,[4]; 2 WAT,93%
same,inhibition at 375 g/ha,[4]; 4 WAT,92%
same,inhibition at 375 g/ha,[4]; 6 WAT,72%
same,inhibition at 750 g/ha,[4]; 2 WAT,70%
same,inhibition at 750 g/ha,[4]; 4 WAT,82%
same,inhibition at 750 g/ha,[4]; 6 WAT,77%
same,inhibition at 1500 g/ha,[4]; 2 WAT,93%
same,inhibition at 1500 g/ha,[4]; 4 WAT,99%
same,inhibition at 1500 g/ha,[4]; 6 WAT,100%
same,inhibition at 3000 g/ha,[4]; 2 WAT,95%
same,inhibition at 3000 g/ha,[4]; 4 WAT,100%
same,inhibition at 3000 g/ha,[4]; 6 WAT,100%
same,inhibition at 375 g/ha,[5]; 3 WAT,97%
same,inhibition at 375 g/ha,[5]; 5 WAT,98%
same,inhibition at 375 g/ha,[5]; 7 WAT,60%
same,inhibition at 750 g/ha,[5]; 3 WAT,100%
same,inhibition at 750 g/ha,[5]; 5 WAT,100%
same,inhibition at 750 g/ha,[5]; 7 WAT,100%
same,inhibition at 1500 g/ha,[5]; 3 WAT,100%
same,inhibition at 1500 g/ha,[5]; 5 WAT,100%
same,inhibition at 1500 g/ha,[5]; 7 WAT,100%
same,inhibition at 3000 g/ha,[5]; 3 WAT,100%
same,inhibition at 3000 g/ha,[5]; 5 WAT,100%
same,inhibition at 3000 g/ha,[5]; 7 WAT,100%
same,"selectivity factor (GR15/GR85), MV in transplant rice",[5]; between 3 WAT and 7 WAT,8
